Data taken from US11179380B2, “Compounds and compositions for use in treating psoriasis” (SOLVOTRIN THERAPEUTICS LTD, priority 2017, dated 2021).

Key:
normal healthy skin = assay: Assessment of erythema and itchiness after topical application to shaved forearm; format: in vivo
Procedure: Test article dispersed in petroleum jelly was applied to a 2×2 cm patch of shaved forearm (n=3). At specified time intervals the degree of erythema was recorded by blinded observers on a scale of 1-4 (n=3). Itchiness was observed by scratching behaviour also by blinded observers on a scale of 1-4. The time course of erythema resolution was recorded at 30 minute intervals.

[1] = tested on: Peripheral Blood Mononuclear Cells (PBMCs); assay: Cytokine-expressing cells in stimulated PBMC (anti-CD3, PMA and ionomycin), flow cytometry; format: cell-based, human
Procedure: PBMC were isolated from leukocyte-enriched buffy coats obtained from anonymous healthy donors with consent from the Irish Blood Transfusion Service, St James' Hospital, Dublin, Ireland. PBMC were pre-treated with test compounds or a vehicle control at the indicated concentrations for 6 hours prior to stimulation by anti-CD3 for 4 days and re-stimulated with PMA and ionomycin for 6 hours. Thereafter cells were counted using flow cytometry.

Aldara-treated mice = assay: Aldara-induced model of psoriasis in mice, clinical scoring (PASI); format: in vivo, mice (C57BL/6J)
Procedure: Specific Pathogen-Free female C57BL/6J strain mice, 6-8 weeks of age, were obtained from a commercial supplier and bred in-house (JAX, Charles River). Mice were fed irradiated diet and housed in individually ventilated cages (Tecniplast, UK) under positive pressure. All animal experiments were performed in compliance with the Health Products Regulatory Authority and approved by the Trinity College Dublin's BioResources ethical review board.
The Aldara-induced model of psoriasis was used (Flutter and Nestle, 2013; Morwietz, 2015; Russell et al., 2013; van der Fits et al., 2009). The dorsal skin of mice was shaved and depilated on day −1. Mice were that were in the telogen phase (resting phase) of the hair cycle were chosen for experiments. Mice with visual skin damage from shaving were excluded. Mice were then randomly divided into groups for treatment with topical application of vehicle (white petroleum jelly) or Solvotrin test compounds, prepared in white petroleum jelly. On day 0, mice were scored for disease signs, as per below. After which 62.5 mg of Aldara™ cream (5% Imiquimod; MEDA Pharmaceuticals) was applied to a defined area of the shaved dorsal skin surface. Thirty minutes after the Aldara application, test compounds or vehicle was applied to the dorsal flank, to cover the entire Aldara-challenged surface, with an even layer of the white petroleum. This process was repeated for a further 5 days. Mice were scored daily. On day 6 the mice were euthanized for tissue collection.
The skin of mice was scored for signs of psoriasis-like inflammation for a total of 7 days, (i.e. days 0-6), as described (van der Fits et al., 2009). Mice were scored according to 3 parameters: erythema (the redness of skin); thickening of the skin; and scaling (dryness and flaking of the skin). For each parameter, the mice were scored on a scale from 0-4. Mice with no pathology were scored 0. Mice with mild pathology scored 1. […] The total, or Psoriasis Area and Severity Index (PASI), score was the cumulative score of all three parameters. Therefore for each mouse studied the PASI score can range between 0 to 12.
Power calculations on data from previous studies have shown that a sample size of at least 6 will detect significant difference (P<0.05) in PASI scores between groups. ANOVA and Dunnett Multiple Comparison Test determined statistical differences between multiple groups. Two tailed Student's t-test was used to compare statistical differences between two groups.
Unless otherwise specified percentage concentration of a test compound in a composition refers to the weight percent of said test compound in the composition. For example, application of 2% compound X, means application of a composition comprising 2 weight percent of compound X.

physchem = settings: for Rm: calculated from Rf
Procedure: The partition coefficient (P) is used to describe the lipophilicity of a drug. It is defined as the ratio of equilibrium concentrations of a drug in an organic phase (Corg) and an aqueous phase (Caq).
Most commonly the organic solvent is n-octanol and the other solvent is water. Hydrophobic molecules will have a high P value while hydrophilic molecules will have a low P value.
Rm values were calculated from Rf values that were obtained at three different mobile phase compositions (40, 50 and 60% MeOH in water).
The Rm value was calculated using the following equation: […]
The theoretical Rm value at 0% organic modifier was calculated by extrapolating from the calibration curves that were obtained. These values were then correlated to the literature log P of two reference compounds (methyl benzoate and paracetamol).

Primary human DC = assay: Cytokine concentrations in LPS-stimulated monocyte-derived dendritic cells, ELISA; format: cell-based; settings: LPS 24 hours
Procedure: Primary human DC were produced from CD14+ monocytes isolated from healthy human PBMC via magnetic cell sorting. Monocyte-derived DC were pre-treated with test compounds or a vehicle control for 6 hours prior to stimulation by LPS for 24 hours. Cytokine concentrations in cell supernatants were determined by ELISA (eBiosciences).

[2] = activated T-cells, various concentrations

## CC(=O)Oc1ccccc1C(=O)O[C@H]1COC2C1OC[C@H]2OC(=O)c1cccnc1 (stereo partly drawn) [ST0702, Isosorbide-2-aspirinate-5-nicotinate]
Normal healthy skin; 2%
  cumulative irritancy score (irritancy/erythema): did not cause irritancy/erythema
Normal healthy skin; 2% in petroleum jelly, 1 hour after application
  erythema/irritation: did not cause erythema/irritation
Normal healthy skin; 5% in petroleum jelly
  temporal erythema response: resolved rapidly
[1]
  number of IL-17 expressing cells: inhibitory effect
[1]; 50 μM
  percentage of TNF-alpha expressing cells: reduced
[1]; [2]
  GM-CSF: appreciable effect
  IL-2: not to have any appreciable effect
[1]; in comparison to control
  percentage of IFN-gamma expressing cells: significantly reduced
Aldara-treated mice; 0.5% topical, relative to Vehicle-treated mice
  PASI scores: significantly lower on days 3 (P<0.05) and 4 (P<0.01)
Aldara-treated mice; 0.5 or 5% topical, vs Vehicle
  erythema score: significant, and dose-dependent, reductions
  scaling score: significant, and dose-dependent, reductions
  skin thickness score: significant, and dose-dependent, reductions
Aldara-treated mice; 2%
  efficacy in the ALDARA model: effective
Aldara-treated mice; higher dose (5%) topical, vs Vehicle
  skin inflammation (PASI score): reduced skin inflammation on days 3-5 (P<0.01-0.001)
Aldara-treated mice; topical in white petroleum jelly, two separate experiments (3%; 0.5 or 5%), vs Vehicle
  progressive development of psoriasis-like skin inflammation: significantly (P<0.05-0.001) reduced
physchem
  chromatographic logP: 4.1
physchem; 40% MeOH in water
  Rf: 0.0460
  Rm: 1.3168
physchem; 50% MeOH in water
  Rf: 0.1200
  Rm: 0.8653
physchem; 60% MeOH in water
  Rf: 0.2730
  Rm: 0.4254
physchem; theoretical Rm at 0% organic modifier
  Extrapolated Rm (y value): 3.0977
Primary human DC
  IL-10: no appreciable effect
